Patent US10538496B2, “Methods using HDAC11 inhibitors” (FORMA Therapeutics, Inc., priority 2016, dated 2020)

Assays:
HEL 92.1.7 cells = assay: Cell proliferation assay (CCK8); assay type: cell-based; conditions: 48h
Procedure: (§1) This example describes inhibition of in vitro cell proliferation with exemplary HDAC11 inhibitors. The effects of selective HDAC11 inhibitors on cell proliferation were measured in cell lines containing the MPN-associated mutations MPL W515L (Ba/F3 MPL W515L) and JAK2 V617F (Ba/F3 JAK2 V617F, HEL 92.1.7, SET-2). HEL 92.1.7 and SET-2 cells were purchased from the ATCC and DSMZ, respectively. Ba/F3 cells overexpressing either MPLW515L or JAK2V617F, which were cytokine independent, were generated by transforming Ba/F3 cells with retroviruses overexpressing either MPL W515L or JAK2V617F. For survival assays, cells were seeded in 96-well plates at the density of 0.1 million/ml with addition of indicated compounds and incubated at 37° C. for 48h. CCK8 solution (Dojindo, Rockville, Md.) was added and absorbance at 450 nm was measured after 3 hours of incubation. Readings were normalized to dimethylsulfoxide (DMSO)-treated wells.

SET-2 cells = assay: Cell proliferation assay (CCK8); assay type: cell-based; conditions: Ruxolitinib-resistant SET-2
Procedure: as §1

[1] = system: erythroid cells from MPN patients; assay: Colony formation assay from patient samples; assay type: cell-based, human; conditions: two patient samples (ET; PV, Ruxolitinib resistant)
Procedure: (§2) To determine the effects of selective HDAC11 inhibition on MPN patient samples, the effects of HDAC11 inhibitors were evaluated in a colony formation assay with erythroid or myeloid cells from MPN patients. Peripheral blood was obtained from MPN patients consented through the Moffitt Cancer Center Total Cancer Care protocol (MCC 14690). Blood was treated with HetaSep™ (STEMCELL Technologies, Inc.) to remove the majority of red blood cells. Peripheral blood mononuclear cells (PBMCs) were isolated by ficoll separation. PBMCs (1-4×105) were then plated in 1 mL of methylcellulose medium containing rhSCF, rhIL-3, and granulocyte-macrophage colony-stimulating factor (rhGM-CSF) (MethoCult™ #H4534; STEMCELL Technologies, Inc.). All drug treated samples contained 0.1% DMSO as the final concentration. Cells were incubated at 37° C. and 5% CO2 in a humidified incubator. Colonies were scored 12 to 14 days after plating.

[2] = system: myeloid cells from MPN patients; assay: Colony formation assay from patient samples; assay type: cell-based, human; conditions: two patient samples (ET; PV, Ruxolitinib resistant)
Procedure: as §2

Ba/F3 JAK2 V617F cells = assay: Cell proliferation assay (CCK8); assay type: cell-based; conditions: Mus musculus, BaF3; Ba/F3 JAK2V617F, 48h; read-out: IC50, inhibition of proliferation
Procedure: as §1

Ba/F3 MPL W515L cells = assay: Cell proliferation assay (CCK8); assay type: cell-based; conditions: Mus musculus, BaF3; Ba/F3 MPLW515L, 48h; read-out: IC50, inhibition of proliferation
Procedure: as §1

H1650 SP cells = assay: Tube formation assay with stem-like side population NSCLC cells; assay type: cell-based; conditions: on Matrigel, overnight
Procedure: The angiogenic tubule assay was performed with the sorted side population cells to analyze vascular mimicry. The H1650 side population cells were sorted as mentioned above and they were further grown on Matrigel (BD Biosciences) to form angiogenic tubule-like structures. 100 μl of thawed Matrigel was layered on the wells of 96-well tissue culture plates and allowed to polymerize at 37° C. for 30 min. Sorted H1650 SP cells were layered (12000 cells/100 μl of Matrigel) on the polymerized matrigel and incubated overnight at 37° C. Tubule formation was assessed under bright field using EVOS FL microscope system and images were acquired with EVOS software (Life Technologies Inc., USA). For the treatment with HDAC11 inhibitors, appropriate concentrations of the compounds were added to the cells when they were seeded on Matrigel for the tubule formation assay.

A549 cells = assay: Cell migration (scratch) assay; assay type: cell-based
Procedure: The effects of HDAC11 inhibition on cell migration were determined using a scratch assay. A549 cells (120,000-150,000 cells/2 ml/well) were grown in 6-well tissue culture plates (BD Biosciences). A scratch was made using a sterile 2 μl pipette tip in each well. The 10% FBS containing medium was added to the wells after a wash with DPBS. To assess the effect of the HDAC11 inhibitors on cell migration, the inhibitors were added in the medium at appropriate concentrations. The cells were further incubated at 37° C. The images were taken on Day 0 and after every 24 hours using EVOS FL microscope system and EVOS software (Life Technologies Inc) and the cell migration was compared to the Day 0 of treatment.

[3] = system: H1650 cells co-cultured with primary CAFs from human lung cancer; assay: Co-culture assay with cancer cells and cancer associated fibroblasts; assay type: cell-based
Procedure: The effects of selective HDAC11 inhibition on cancer cells and cancer associated fibroblasts (CAFs) were determined in a co-culture assay. The cells were first trypsinized and collected in serum containing medium and were further incubated in same media at 37° C. for 15-20 min for recovery. The cells were resuspended in serum free media at 1×10^6 cells/ml density and stained with 10 uM of cytotracker green (Cancer associated fibroblasts) or cytotracker red dye (H1650 cells) (Life Technologies Inc) at 37° C. for 90 min. The stained cells were washed twice with serum free medium to remove excess dye at 1500 rpm for 5 min. The cytotracker green stained CAFs were mixed with cytotracker red stained H1650 cells in 1:1 ratio and grown in 96-well tissue culture plate overnight. The HDAC11 inhibitors were then added to the mixed adhered cells (CAFs+H1650) at appropriate concentrations. The images were taken on Day 0 and after every 24 hours using EVOS FL microscope system and EVOS software (Life Technologies Inc).

IC50 (Ba/F3 JAK2 V617F cells) [µM] | IC50 (Ba/F3 MPL W515L cells) [µM] | Structure (SMILES) | growth of the HEL 92.1.7 cell line (HEL 92.1.7 cells) | growth of a SET-2 cell line generated to be Ruxolitinib-resistant (SET-2 cells) | growth of colonies from erythroid cells [1] | growth of colonies from myeloid cells [2] | tubule formation by H1650 SP cells (H1650 SP cells) | A549 cell migration (A549 cells) | growth of H1650 cells co-cultured with primary CAFs ([3]; 1:1 co-culture) | effects on CAFs ([3]; 1:1 co-culture with H1650 cells)
 |  | O=C(NO)c1cccc(Nc2nc3cc(Cl)c(Cl)cc3o2)c1 [HDTK010, 3-((5,6-dichlorobenzo[d]oxazol-2-yl)amino)-N-hydroxybenzamide] | inhibited the growth | inhibited the growth | reduced the growth of colonies | reduced the growth of colonies |  |  |  | 
1 to 10 | 1 to 10 | O=C(NO)c1cccc2c1C[C@]1(CCN(Cc3ccc(Cl)c(C(F)(F)F)c3)C1=O)C2 [HDTK054, (S)-1′-(4-chloro-3-(trifluoromethyl)benzyl)-N-hydroxy-2′-oxo-1,3-dihydrospiro[indene-2,3′-pyrrolidine]-4-carboxamide] |  |  |  |  | inhibited tubule formation | impaired A549 cell migration | inhibit the growth | minimal effects
